Data as given in patent publication US7893299B2, “Interleukin-1 and tumor necrosis factor-αmodulators; syntheses of such modulators and methods of using such modulators” (Nereus Pharmaceuticals, Inc., priority 2005, dated 2011).
Read-outs that look alike come from different tables or passages of the source. Each block holds one molecule with its values, some of them ahead of it.

Experiments:
[1] = system: TNF-α production in HPBMC; assay: TNF-α levels in LPS-stimulated Human Peripheral Blood Mononuclear cells (ELISA); format: cell-based; conditions: 5 hr drug exposure, read-out: EC50 Inhibition of TNF-α production
Protocol: (§1) Eighty μl of 3.1×10^5/ml Human Peripheral Blood Mononuclear cells (HPBMC) were seeded in Costar 3904 96-well plate in LGM-3 medium and cultured for 12 hr at 37° C., 5% CO2 and 95% humidified air. 10 μl of 8-point half-log serial dilutions of LT-1-85, CC-3-19, CC-3-13P, formula (IIB-A1) and CC-3-22 prepared in LGM-3 medium was added to the cells and incubated for 1 hr. Subsequently, 10 μl of 500 ng/ml lipopolysaccharide (LPS) diluted in LGM-3 medium from 1 mg/ml stock solution was added to the cells and incubation proceeded for another 4 hr at 37° C., 5% CO2 and 95% humidified air. SB203580, a known p38 MAP kinase inhibitor and DMSO were used as positive and negative controls, respectively. After 4 hr stimulation with LPS, the level of TNF-α from each sample was analyzed by using the human TNF-α cytoset ELISA kit. EC50 values (the drug concentration at which 50% of the maximal observed TNF-α production is inhibited) were determined using a standard sigmoidal dose response curve fitting algorithm (Prism 2.0, GraphPad Software Inc). A duplicate set of cell plates were assayed for cell viability using the Resazurin dye after the cells were incubated with test compounds for 24 hr. The fluorescence of the reduction product of Resazurin was measured using a Fusion microplate fluorometer (Packard Bioscience) with λex=535 nm and λem=590 nm filters. EC50 values (the drug concentration at which 50% of the maximal observed growth inhibition is established) were determined using a standard sigmoidal dose response curve fitting algorithm (Prism 2.0, GraphPad Software Inc).

RPMI 8226 cells = assay: cell growth inhibition, RPMI 8226, Resazurin, 1% FBS; format: cell-based, Human; conditions: 48 hr of drug exposure
Protocol: (§2) Human prostate adenocarcinoma (PC-3; CRL-1435), multiple myeloma (RPMI 8226; CCL-155) and embryonic kidney (HEK-293; CRL-1573) cells were all purchased from ATCC and maintained in appropriate culture media. The cells were cultured in an incubator at 37° C. in 5% CO2 and 95% humidified air.
(§3) For cell growth inhibition assays, PC-3 and HEK-293 cells were seeded at 5×10^3 and 1.5×10^3 cells/well respectively in 90 μl media containing 1% (v/v) FBS into 96 well (Corning; 3904) black-walled, clear-bottom tissue culture plates and the plates were incubated overnight to allow cells to establish and enter log phase growth. RPMI 8226 cells were seeded at 2×10^4 cells/well respectively in 90 μl media containing 1% (v/v) FBS into 96 well plates on the day of the assay. 4 mg/ml stock solutions of the compounds were prepared in 100% DMSO and stored at −20° C. The compounds were serially diluted and added in triplicate to the test wells. LT-1-85 was tested at concentrations ranging from 27 μM to 8.6 nM. Concentrations ranging from 30 μM to 9.7 nM were tested for CC-3-13P. Formula (IIB-A1) was tested at concentrations ranging from 26 μM to 8.4 nM. The plates were returned to the incubator for 48 hours. The final concentration of DMSO was 0.25% in all samples.
(§4) Following 48 hours of drug exposure, 10 μl of 0.2 mg/ml Resazurin in Mg2+, Ca2+ free phosphate buffered saline was added to each well and the plates were returned to the incubator for 3-6 hours. Since living cells metabolize Resazurin, the fluorescence of the reduction product of Resazurin was measured using a Fusion microplate fluorometer (Packard Bioscience) with λex=535 nm and λem=590 nm filters. Resazurin dye in medium without cells was used to determine the background, which was subtracted from the data for all experimental wells. […] Where the maximum inhibition of cell growth was less than 50%, an EC50 value was not determined. The data in Table 25 summarize the growth inhibitory effects of LT-1-85, CC-3-13P and formula (IIB-A1) against HEK-293, PC-3 and RPMI 8226 cells. The EC50 values indicate that LT-1-85 and CC-3-13P are cytotoxic against HEK-293, PC-3 and RPMI 8226 cells. Formula (IIB-A1) is cytotoxic against RPMI 8226 cells.

PC-3 cells = assay: cell growth inhibition, PC-3, Resazurin, 1% FBS; format: cell-based, Human; conditions: 48 hr of drug exposure
Protocol: as §2, §3, §4

HPBMC = HPBMC cell viability, Resazurin; format: cell-based, Human; conditions: HPBMC, 24 hr drug exposure, read-out: EC50 Inhibition of cell growth
Protocol: as §1

THP-1 cells = assay: resazurin viability assay in THP-1 cells; format: cell-based, human; conditions: * mild, ** marked reduction in viability, in % (unit assumed)
Protocol: (§5) The ability to inhibit TNF-α production was analyzed in THP-1 cells, a human acute monocytic leukemia cell line that is widely used to assess monocyte functions. In order to induce maturation, THP-1 cells were plated at 1×10^6 cells/ml and pretreated with 5 nM PMA for two days. Differentiated THP-1 cells were pretreated with various concentrations of TTL3 or its analogs for 1 hour, followed by a 4 hour incubation with 1 μg of LPS (Sigma, St. Louse, Mo.). The p38 inhibitor (SB 203580; Sigma, St. Louis, Mo.) was used as a positive control. Supernatants were collected and stored at −80° C. until assayed for TNF-α activity. A resazurin assay was performed for each analog to evaluate the effects on cell metabolism and viability.
A preparation of the dye resazurin, commercially-available as alamarBlue™ (Biosource International Inc., 820 Flynn Road, Camarillo, Calif.), was used for the cytotoxicity assays described herein. The assays and experiments described herein were conducted in substantially the same manner as described in the scientific literature, for example, in Magnani, E. and Bettini, E., “Resazurin detection of energy metabolism changes in serum-starved PC12 cells and of neuroprotective agent effect,” Brain Res Protoc., 2000 July; 5(3):266-72 and in Nociari M. M., Shalev A., Benias P., and Russo C. J, “A novel one-step, highly sensitive fluorometric assay to evaluate cell-mediated cytotoxicity,” Immunol. Methods 213, 157-167 (1998), see also U.S. Pat. No. 5,501,959, entitled “Antibiotic and Cytotoxic Drug Susceptibility Assays using Resazurin and Poising Agents,” the entire specification of which is incorporated herein by reference.

[2] = system: TNF-α production in THP-1 cells; assay: LPS-induced TNF-α production in differentiated THP-1 cells (FLISA); format: cell-based; conditions: Homo sapiens, read-out: Percent TNF-α Inhibition
Protocol: as §5
To detect the presence of human TNFα, fluorescent linked immunosorbent assay or FLISA was developed and optimized. 100 μl of beads (6 μm, Spherotech) coated with goat anti-mouse IgG (1 mg/ml, R and D Systems) were mixed with 4 μl of biotin-anti-hTNFα mouse IgG (0.1 mg/ml, R and D Systems) and 2 μl of FMAT Blue-streptavidin (0.1 mg/ml, Applied Biosystems). 50 μl of the mixtures was combined with 50 μl of the supernatant isolated from treated THP-1 cells and added to the black wall FLISA plates (Applied Biosystems) and incubated overnight. The plates were scanned at factory set PMT setting, and the values were plotted and analyzed by Applied Biosystems software.

HT-29 (Colon) = assay: 48 hr cytotoxicity, HT-29; format: cell-based, human; conditions: Homo sapiens, HT-29, 48 h
Protocol: (§6) Human colon adenocarcinoma HT-29 (ATCC# HTB-38), prostate adenocarcinoma PC-3 (ATCC# CRL-1435), breast adenocarcinoma MDA-MB231 (ATCC# HTB-26), Multiple Myeloma RPMI 8226 (ATCC# CCL-155) and U266 (ATCC # TIB-196) cell lines and human normal fibroblast CCD-27sk (ATCC# CRL-1475) were all purchased from ATCC (Manassas, Va.). The cells were maintained in their respective ATCC recommended culture media at 37° C., 5% CO2 and 95% humidified air.
(§7) The cytotoxicity assays were performed by seeding individual cell lines at appropriate density in the 96 well flat-bottomed plates and allowed to attach for 24 hours at 37° C., 5% CO2 and 95% humidified air (RPMI 8226 and U266 cells were plated in 96 well plates on the day of compound addition). Serially diluted NPI-1387 was added in triplicate to cells at concentrations ranging from 160 nM to 20 μM. Final concentration of 0.25% (v/v) DMSO was used as the vehicle control. Cell viability was assessed 48 hours later by measuring the fluorescence of the reduction product of Resazurin by a Fusion microplate fluorometer (PerkinElmer) with λex=535 nm and λem=590 nm filters. The IC50 values (the drug concentration at which 50% of the maximal observed cytotoxicity is established) were calculated in XLFit 3.0 or XLFit 4.0 (ID Business Solutions Ltd) using a sigmoidal dose response model.

U266 (MM) = assay: 48 hr cytotoxicity, U266; format: cell-based, human; conditions: Homo sapiens, U-266, 48 h
Protocol: (§8) B16-F10 (ATCC; CRL-6475), DU 145 (ATCC; HTB-81), HEK293 (ATCC; CRL-1573), HT-29 (ATCC; HTB-38), LoVo (ATCC; CCL-229), MDA-MB-231 (ATCC; HTB-26), MIA PaCa-2 (ATCC; CRL-1420), NCI-H292 (ATCC; CRL-1848), OVCAR-3 (ATCC, HTB-161), PANC-1 (ATCC; CRL-1469), PC-3 (ATCC; CRL-1435), RPMI 8226 (ATCC; CCL-155) and U266 (ATCC; TIB-196) are maintained in appropriate culture media. The cells are cultured in an incubator at 37° C. in 5% CO2 and 95% humidified air.
(§9) For cell growth inhibition assays, B16-F10, DU 145, HEK293, HT-29, LoVo, MDA-MB-231, MIA PaCa-2, NCI-H292, OVCAR-3, PANC-1, PC-3, RPMI 8226 and U266 cells are seeded at 1.25×10^3, 5×10^3, 1.5×10^4, 5×10^3, 5×10^3, 1×10^4, 2×10^3, 4×10^3, 1×10^4, 7.5×10^3, 5×10^3, 2×10^4, 2.5×10^4 cells/well respectively in 90 μl complete media into Corning 3904 black-walled, clear-bottom tissue culture plates. 20 mM stock solutions of compounds of Formula II, IIA, and IIB are prepared in 100% DMSO, aliquoted and stored at −80° C. Compounds of Formula II, IIA, and IIB are serially diluted and added in triplicate to the test wells resulting in final concentrations ranging from of 20 μM to 0.2 pM. […]
(§10) Following 48 hours of drug exposure, 10 μl of 0.2 mg/ml resazurin (obtained from Sigma-Aldrich Chemical Co.) in Mg^2+, Ca^2+ free phosphate buffered saline is added to each well and the plates are returned to the incubator for 3-6 hours. Since living cells metabolize Resazurin, the fluorescence of the reduction product of Resazurin is measured using a Fusion microplate fluorometer (Packard Bioscience) with λex=535 nm and λem=590 nm filters. […]
(§11) The cytotoxicity assays were performed by seeding individual cell lines at appropriate density in the 96 well flat-bottomed plates and allowed to attach for 24 hours at 37° C., 5% CO2 and 95% humidified air (RPMI 8226 and U266 cells were plated in 96 well plates on the day of compound addition). […] Cell viability was assessed 48 hours later by measuring the fluorescence of the reduction product of Resazurin by a Fusion microplate fluorometer (PerkinElmer) with λex=535 nm and λem=590 nm filters. […]

RPMI 8226 (MM) = assay: 48 hr cytotoxicity, RPMI 8226; format: cell-based, human; conditions: Homo sapiens, RPMI-8226, 48 h
Protocol: as §6, §7

PC3 (Prostate) = assay: 48 hr cytotoxicity, PC-3; format: cell-based, human; conditions: Homo sapiens, 48 h
Protocol: as §8, §9, §10, §11

MDA-MB-231 (Breast) = assay: 48 hr cytotoxicity, MDA-MB-231; format: cell-based, human; conditions: Homo sapiens, MDA-MB-231, 48 h
Protocol: as §8, §9, §10, §11

EC50 ([1]; Homo sapiens, PBMC, 5 h): 3.3 µM
SMILES: C=C[C@@]1(C)CCC=C2[C@H]1CC[C@@H]1[C@](C)(CC(=O)CN3CCNCC3)CCC[C@@]21C [CC-3-19]
EC50 (HPBMC; Homo sapiens, 24 h): 3 µM

EC50 ([1]; Homo sapiens, PBMC, 5 h): 7.4 µM
SMILES: C=C[C@@]1(C)CCC=C2[C@H]1CC[C@@H]1[C@](C)(COC(=O)CN3CCOCC3)CCC[C@@]21C [CC-3-22]
Effect on Cell Viability (THP-1 cells; 100 ng/ml): 100 | Effect on Cell Viability (THP-1 cells; 1 ug/ml): 100 | Effect on Cell Viability (THP-1 cells; 10 ug/ml): 100 | inhibition at 0.1 µg/mL ([2]; 100 ng/ml): 0% | inhibition at 1 µg/mL ([2]; 1 ug/ml): 0% | inhibition at 10 µg/mL ([2]; 10 ug/ml): 20% | EC50 (HPBMC; Homo sapiens, 24 h): 24 µM

The remaining lines, values behind:

SMILES: C=C[C@@]1(C)CCC=C2[C@H]1CC[C@@H]1[C@](C)(CNCCN)CCC[C@@]21C [CC-3-13P]
EC50 [1]: 0.4 µM | EC50 ([1]; Homo sapiens, PBMC, 5 h): 0.5 µM | EC50 (RPMI 8226 cells): 2.7 µM | EC50 (RPMI 8226 cells; Homo sapiens, RPMI-8226, 48 h): 2.3 µM | EC50 (PC-3 cells): 4 µM | EC50 (PC-3 cells; Homo sapiens, PC-3, 48 h): 3.7 µM | EC50 (HPBMC): 0.7 µM | EC50 (HPBMC; Homo sapiens, 24 h): 0.9 µM

SMILES: C=CC(=O)[C@]1(C)CCC[C@@]2(C)C3CCC4C[C@@]3(CCC21)CC4=C (stereo partly shown) [NPI-1388]
IC50 (HT-29 (Colon)): 17 ± 4 µM | IC50 (U266 (MM)): 8.6 ± 6.4 µM | IC50 (RPMI 8226 (MM)): 4.1 ± 1.1 µM | IC50 (PC3 (Prostate)): 10 ± 3 µM | IC50 (MDA-MB-231 (Breast)): 14 ± 5 µM

SMILES: C=C[C@@]1(C)CCC=C2[C@H]1CC[C@@H]1[C@](C)(C(=O)O)CCC[C@@]21C [TTL1]
Effect on Cell Viability (THP-1 cells; 100 ng/ml): 100 | Effect on Cell Viability (THP-1 cells; 1 ug/ml): 100
